{
  "source": "paper PMC7801313",
  "about": "“Effect of lurbinectedin on the QTc interval in patients with advanced solid tumors: an exposure–response analysis” (Cancer Chemotherapy and Pharmacology, 2020)",
  "key": {"oncogenic transcription": {"tested_on": "oncogenic transcription", "set-up": "method as in PMID 20977459", "settings": "cited from earlier work"}, "hERG": {"tested_on": "hERG", "set-up": "method as in data on file", "settings": "ref data on file; cited from earlier work"}, "[1]": {"set-up": "method as in data on file", "settings": "ref data on file; cited from earlier work"}, "patients": {"tested_on": "patients", "experiment": "clinical toxicity of lurbinectedin as a single agent", "type": "in vivo, human", "settings": "to date"}, "[2]": {"tested_on": "patients with advanced solid tumors", "experiment": "concentration-ΔQTcF linear mixed-effects modelling", "type": "in vivo, human", "protocol": "C–ΔQTcF was assessed using a linear mixed-effects (LME) model, as proposed by Garnett et al.. As the data available came from a single arm study, the LME model was characterized by the intercept ( θ1 ) and the slope ( θ2 ), and their corresponding variabilities.1 ΔQTcFij=θ1·e^η1,i+θ2·e^η2,i·Cij+θ3·Cycle+ϵij, where Cij is the model-predicted lurbinectedin total plasma concentrations (or the lurbinectedin concentrations in the effect compartment if a hysteresis is present), and η1,i and η2,i are the random effects associated with the intercept term θ1 and the slope term θ2 , respectively, and are assumed to be exponential, independent, and normally distributed. Furthermore, ϵij is the random residual variability, assumed to be an additive, independent, and normally distributed random variable. In the absence of placebo data, the unstructured placebo model consisting on the fixed effect parameters accounting for treatment-specific intercept (TRT), mean ΔQTcF at each time point evaluated (TIME), and baseline QTc was not included in the model. Based on the fact that ECG and PK assessments in this study were performed on two occasions (cycle 1 and cycle 2), the effect of cycle θ3 was also assessed in the models. To select the model for the C-ΔQTcF analysis (i.e., direct or indirect), a potential delay of the ΔQTcF effect relative to plasma concentrations (hysteresis) was graphically and statistically assessed, as proposed by Darpo et al.. To enable an adequate comparison of the model fit between the direct effect model and the effect compartment model, the model-based predicted total plasma concentrations at central compartment (“direct” model) and at the effect compartment (“indirect” model) were used. These were based on the individual PK parameters, obtained through a maximum a posteriori estimation based on the individual total plasma concentration available for each subject and a population PK model previously developed.\nThe assumption of linearity of the C–ΔQTcF relationship was assessed by goodness-of-fit plots. Besides, a model with an empirical quadratic term of total plasma concentration was fitted and the significance of the quadratic term was tested. In case of the absence of trends in the goodness-of-fit plots and a non-significant quadratic term, the C–∆QTcF relationship was considered linear; otherwise, the relationship was considered non-linear.\nThe predicted effect of lurbinectedin on ΔQTcF was estimated at the Cmax geometric mean either at the central or at the effect compartment in the first two cycles following the administration of 3.2 mg/m^2 i.v. over 1-h q3wk and was calculated as the estimated intercept ( θ1,Est ) plus the product of the estimated slope ( θ2,Est ) and geometric mean Cmax ( C ):2 EstimatedMeanΔQTcFC=θ1,Est+C×θ2,Est.\nTwo-sided 90% confidence intervals (CIs) of the estimated ΔQTcF were computed from Eqs. 3 and 4:3 EstimatedSE=varθ1,Est+C^2varθ2,Est+2Ccovθ1,Estθ2,Est 4 90%CI=EstimatedMeanΔQTcC±t0.95,DF×EstimatedSE, where varθ1,Est is the variance of the intercept, varθ2,Est is the variance of the slope, and covθ1,Estθ2,Est is the covariance of intercept and slope; t is the critical value determined from the t-distribution; DF is the degrees of freedom; SE is the standard error; and CI is the confidence interval.\nTo exclude a prolongation of QT for lurbinectedin assuming that there is no placebo effect, the upper bound (UB) of the 2-sided 90% CI of the model-predicted mean ΔQTcF had to be lower than 10 ms (threshold set at the ICH E14 Q&A R3 [11]), at the Cmax geometric mean obtained after administration of the clinically relevant dose of 3.2 mg/m^2 i.v. over 1-h q3wk.\nThe Cmax geometric mean either at the central or at the effect compartment, at which UB 90% CI of the model-predicted mean ΔQTcF would be above 10 ms and 20 ms thresholds, was also estimated according to the formulas provided above."}, "cytochrome P450 (CYP) 3A": {"tested_on": "cytochrome P450 (CYP) 3A", "set-up": "method as in data on file", "settings": "in vitro studies; ref data on file; cited from earlier work"}, "telemetered dogs": {"tested_on": "telemetered dogs", "set-up": "method as in data on file", "settings": "single i.v. bolus at maximum tolerated dose, ref data on file; cited from earlier work"}, "[3]": {"experiment": "lurbinectedin plasma pharmacokinetics in the QT evaluation study", "type": "in vivo, human", "protocol": "In cycle 1 and cycle 2, the following triplicate ECGs were collected 5–10 min before their time-matched PK time points: 5 min before end of the lurbinectedin infusion (EOI), 30 min, 1, 3, 24, 72 (only on cycle 1), and 168 h after EOI.\nPharmacokinetic (PK) profiles of lurbinectedin were obtained on cycle 1 and cycle 2. Following ECGs’ acquisition, blood samples were collected into K3EDTA tubes. Tubes were gently inverted several times and centrifuged at 2000 × g for 10 min at 4 °C to separate the plasma.\nPlasma concentrations of lurbinectedin were measured by a validated liquid chromatography–mass spectrometry assay (Dynakin S.L., Spain), with ranges of 0.1–50 µg/L. The within- and between-day precisions ranged from 2.7 to 12.9% and from 5.1 to 10.7%, respectively. The within- and between-day accuracy (bias) ranged from 10 to 12% and from 5 to 6%, respectively.\nDatasets were prepared using SAS Enterprise Guide v.7.11 HF3 (SAS Institute Inc., Cary, NC, USA). Non-compartmental PK parameters were determined using Phoenix WinNonlin v.6.3 (Certara, USA). Non-linear mixed-effect modelling was performed in NONMEM v.7.3.0 (GloboMax LLC, Hanover, MD, USA). Graphical and all other statistical analyses were performed in R v.3.2.5 (R Foundation for Statistical Computing, Vienna, Austria)."}},
  "data": [
    {"smiles": "COc1ccc2[nH]c3c(c2c1)CCN[C@]31CS[C@@H]2c3c(OC(C)=O)c(C)c4c(c3[C@H](COC1=O)N1[C@@H]2[C@H]2c3c(cc(C)c(OC)c3O)C[C@@H]([C@@H]1O)N2C)OCO4", "note": "[lurbinectedin, Lurbinectedin]", "values": [
      {"measurement": "in vitro activity", "setting": "oncogenic transcription", "value": "low nanomolar range"},
      {"measurement": "IC50", "setting": "hERG", "value": 8.8, "unit": "µM"},
      {"measurement": "IC50 hERG", "setting": "hERG", "value": 6.9, "unit": "µg/mL"},
      {"measurement": "protein binding", "setting": "[1]", "value": "highly protein-bound"},
      {"measurement": "cardiac toxicity concerns", "setting": "patients", "value": "no cardiac toxicity concerns"},
      {"measurement": "Cmax at the effect compartment associated with 10 ms UB 90% CI of ΔQTcF", "setting": "[2]; delayed effect model", "value": 36.18, "unit": "ng/mL"},
      {"measurement": "Cmax at the effect compartment associated with 20 ms UB 90% CI of ΔQTcF", "setting": "[2]; delayed effect model", "value": 61.94, "unit": "ng/mL"},
      {"measurement": "dose corresponding to 10 ms UB 90% CI of ΔQTcF", "setting": "[2]; delayed effect model", "value": 3.8, "unit": "mg/m^2"},
      {"measurement": "dose corresponding to 20 ms UB 90% CI of ΔQTcF", "setting": "[2]; delayed effect model", "value": 6.5, "unit": "mg/m^2"},
      {"measurement": "fold increase over recommended dose Cmax at 10 ms threshold", "setting": "[2]; delayed effect model", "value": 1.21, "unit": "fold"},
      {"measurement": "fold increase over recommended dose Cmax at 20 ms threshold", "setting": "[2]; delayed effect model", "value": 2.03, "unit": "fold"},
      {"measurement": "Cmax associated with 10 ms UB 90% CI of ΔQTcF", "setting": "[2]; direct effect model", "value": 129.05, "unit": "ng/mL"},
      {"measurement": "Cmax associated with 20 ms UB 90% CI of ΔQTcF", "setting": "[2]; direct effect model", "value": 241.25, "unit": "ng/mL"},
      {"measurement": "dose corresponding to 10 ms UB 90% CI of ΔQTcF", "setting": "[2]; direct effect model", "value": 3.6, "unit": "mg/m^2"},
      {"measurement": "dose corresponding to 20 ms UB 90% CI of ΔQTcF", "setting": "[2]; direct effect model", "value": 6.6, "unit": "mg/m^2"},
      {"measurement": "Cmax (central compartment)", "setting": "[2]; direct effect model, recommended dose", "value": 116.62, "unit": "ng/mL"},
      {"measurement": "Slope of C-ΔQTcF", "setting": "[2]; final delayed effect (effect compartment) model", "value": 0.289, "unit": "L·ms/µg"},
      {"measurement": "Keo, equilibration rate constant", "setting": "[2]; final delayed effect model", "value": 0.298, "unit": "h⁻¹"},
      {"measurement": "Slope of C-ΔQTcF", "setting": "[2]; final direct model", "value": 0.072, "unit": "L·ms/µg"},
      {"measurement": "role of metabolism by CYP3A in clearance", "setting": "cytochrome P450 (CYP) 3A", "value": "major clearance mechanism"},
      {"measurement": "cardiovascular changes", "setting": "telemetered dogs", "value": "mild decreases in blood pressure and increased heart rate"},
      {"measurement": "effects on lead II ECG variables (PR, QT, QTcF, QTcV, QRS), ECG gross morphology, cardiac rhythm", "setting": "telemetered dogs", "value": "No effects were observed"},
      {"measurement": "observed lurbinectedin concentration, mean (Stdv)", "setting": "[3]; Cycle 1, 0.92 h after start of infusion (Cmax)", "value": "106.02 (54.52) µg/L"},
      {"measurement": "observed lurbinectedin concentration, mean (Stdv)", "setting": "[3]; Cycle 1, 1.5 h after start of infusion", "value": "40.01 (24.35) µg/L"},
      {"measurement": "observed lurbinectedin concentration, mean (Stdv)", "setting": "[3]; Cycle 1, 2 h after start of infusion", "value": "27.22 (14.05) µg/L"},
      {"measurement": "observed lurbinectedin concentration, mean (Stdv)", "setting": "[3]; Cycle 1, 4 h after start of infusion", "value": "17.86 (8.07) µg/L"},
      {"measurement": "observed lurbinectedin concentration, mean (Stdv)", "setting": "[3]; Cycle 1, 25 h after start of infusion", "value": "3.84 (1.87) µg/L"},
      {"measurement": "observed lurbinectedin concentration, mean (Stdv)", "setting": "[3]; Cycle 1, 73 h after start of infusion", "value": "1.53 (1.13) µg/L"},
      {"measurement": "observed lurbinectedin concentration, mean (Stdv)", "setting": "[3]; Cycle 1, 169 h after start of infusion", "value": "0.51 (0.45) µg/L"},
      {"measurement": "observed lurbinectedin concentration, mean (Stdv)", "setting": "[3]; Cycle 2, 0.92 h after start of infusion (Cmax)", "value": "136.60 (145.04) µg/L"},
      {"measurement": "observed lurbinectedin concentration, mean (Stdv)", "setting": "[3]; Cycle 2, 2 h after start of infusion", "value": "28.22 (16.84) µg/L"},
      {"measurement": "observed lurbinectedin concentration, mean (Stdv)", "setting": "[3]; Cycle 2, 4 h after start of infusion", "value": "18.82 (10.94) µg/L"},
      {"measurement": "observed lurbinectedin concentration, mean (Stdv)", "setting": "[3]; Cycle 2, 169 h after start of infusion", "value": "0.56 (0.57) µg/L"},
      {"measurement": "Tmax", "setting": "[3]; cycle 1", "value": 0.92, "unit": "h"},
      {"measurement": "mean clearance (non-compartmental)", "setting": "[3]; cycle 1, 39 patients", "value": 11.8, "unit": "L/h"},
      {"measurement": "mean volume of distribution (non-compartmental)", "setting": "[3]; cycle 1, 39 patients", "value": 347.7, "unit": "L"},
      {"measurement": "Tmax", "setting": "[3]; cycle 2", "value": 4, "unit": "h"}
    ]}
  ]
}
